{"source": "patent US20170327786A1", "about": "(Biogen MA Inc., priority 2014, published 2017)", "key": {"Cell Line A": {"test_system": "Cell Line A", "experimental": "Cell Line A expressed the polypeptide Neublastin. […] Feed medium was added daily from Day 2 to Day 12 to the cell culture. […] Initial cell density was one million cells (1e6)."}, "Cell Line B [1]": {"test_system": "Cell Line B", "experimental": "Cell Line B expressed the polypeptide Lingo. […] Feed medium was added daily from Day 1 to Day 15 to the cell culture. […] Initial cell density was one million cells (1e6)."}, "Cell Line B [2]": {"test_system": "Cell Line B", "remark": "listed apart in the source"}, "Cell Line B [3]": {"test_system": "Cell Line B", "assay": "Alternative antioxidants as replacement for hypotaurine, Cell Line B waste accumulation and culture performance", "format": "cell-based", "experimental": "Taurine is the by-product of hypotaurine metabolism. Therefore, cell culture performance when 8 mM taurine was added to the feed medium was compared to cell culture performance when 8 mM of hypotaurine was added to the feed medium. Initial cell density was one million cells (1e6).\nCysteamine is a precursor of hypotaurine. […] Initial cell density was one million cells (1e6). The effects of glutathione, another type of antioxidant, were also explored."}, "CHO cells": {"test_system": "CHO cells", "assay": "Fed-batch culture of CHO cells with GABA-supplemented feed medium", "format": "cell-based, Chinese hamster", "experimental": "The impact of gamma-aminobutyric acid (GABA) levels in the culture on cell density (growth), viability, and lactate concentration was evaluated in CHO cells in a fed-batch process (FIG. 9).\nCryopreserved CHO cells were thawed and maintained in 500 mL, 1000 mL or 3000 mL shake flasks with 100 mL, 200 mL or 1000 mL working volumes using cell culture medium CM3 and were passaged every 2 to 4 days. For maintenance cultures, the incubator was controlled at 36° C. and 5% CO2. A 5 liter (L) glass Applikon vessels using Finesse TruBio DV controllers (Finesse Solutions, San Jose, Calif.) were used for the fed-batch process. Bioreactors were seeded with an initial working volume of 2.5 L at a constant seed. For the control process, feed medium, CF2b, was given on day 3, day 5 and daily thereafter (starting on day 6) until the day before harvest and culture termination. The control process lasted 15 days with harvest and culture termination on day 15. CF2b is designated as a complete feed, comprised of all necessary nutritional elements including glucose, amino acids, vitamins, and metals. For GABA culture, feed medium was supplemented with 8 mM of GABA. The GABA culture lasted 17 days with harvest and culture termination on day 17. The complete feed amount was calculated as a predetermined fixed percentage based on culture volume. Glucose is maintained by the feeding strategy above 2 g/L in general by the bolus feeds and is not limiting. Culture temperature was set at 35° C. and medium pH was controlled at 7.1±0.2 by the addition of either 1 M sodium carbonate or CO2 gas. Dissolved oxygen (DO) was maintained at 30% with air sparge, enriched with oxygen as necessary, through a drilled hole sparger. Agitation was maintained between 200 and 400 rpm throughout the culture to limit total gas flow. An air overlay was maintained between 0.005 and 0.02 gas volume flow per unit of liquid volume per minute (vvm)."}, "Cell Line B [4]": {"test_system": "Cell Line B", "assay": "Fed-batch culture of Cell Line B with hypotaurine feed medium", "format": "cell-based", "experimental": "The control feed medium contained 0 mM hypotaurine. The hypotaurine feed medium contained 8 mM hypotaurine. […] The concentration of hypotaurine in the bioreactor on Day 16 was approximately 2.7 mM. […] Initial cell density was one million cells (1e6). The effects of hypotaurine were evident starting on Day 10."}, "[5]": {"conditions": "9 mM choline chloride feed medium vs control feed with 3 mM choline chloride"}, "[6]": {"conditions": "18 mM choline chloride feed medium vs control feed with 3 mM choline chloride"}, "[7]": {"conditions": "feed medium supplemented with 8 mM GABA vs control"}, "[8]": {"conditions": "8 mM hypotaurine feed medium vs control feed with 0 mM hypotaurine"}}, "note": "Like-named read-outs stand apart in the source and are kept apart here."}
{"smiles": "C[N+](C)(C)CCO.[Cl-]", "note": "[Choline, choline chloride]", "values": [{"measurement": "day from which the effects were evident", "setting": "Cell Line A; 9 mM choline chloride feed medium", "result": 3, "unit": "days"}, {"measurement": "ammonium accumulation", "setting": "Cell Line A; [5]", "result": "lower"}, {"measurement": "viability", "setting": "Cell Line A; [5]", "result": "higher"}, {"measurement": "titer", "setting": "Cell Line A; 9 mM choline chloride feed medium vs control feed with 3 mM choline chloride, Neublastin", "result": "higher"}, {"measurement": "growth (cell density)", "setting": "Cell Line A; 9 mM choline chloride feed medium vs control feed with 3 mM choline chloride, fed daily Day 2 to Day 12", "result": "higher"}, {"measurement": "Day 3 (Effective) Choline Conc.", "setting": "Cell Line A; concentration in culture on Day 3, when effects became evident", "result": 0.90, "unit": "mM"}, {"measurement": "day from which the effects were evident", "setting": "Cell Line B [1]; 18 mM choline chloride feed medium", "result": 9, "unit": "days"}, {"measurement": "ammonium accumulation", "setting": "Cell Line B [1]; [6]", "result": "lower"}, {"measurement": "viability", "setting": "Cell Line B [1]; [6]", "result": "higher"}, {"measurement": "titer", "setting": "Cell Line B [1]; 18 mM choline chloride feed medium vs control feed with 3 mM choline chloride, Lingo", "result": "slightly higher"}, {"measurement": "growth (cell density)", "setting": "Cell Line B [1]; 18 mM choline chloride feed medium vs control feed with 3 mM choline chloride, fed daily Day 1 to Day 15", "result": "higher"}, {"measurement": "Day 9 (Effective) Choline Conc.", "setting": "Cell Line B [1]; choline used alone, concentration in culture on Day 9, when effects became evident", "result": 4.65, "unit": "mM"}, {"measurement": "Effective Choline Conc.", "setting": "Cell Line B [2]; Day 6, high seed", "result": 4.0, "unit": "mM"}, {"measurement": "culture viability crash", "setting": "Cell Line B [2]; high seed 8×10^6 vc/mL, after day 12", "result": "occurred after day 12"}]}
{"smiles": "NCCS", "note": "[Cysteamine, cysteamine]", "values": [{"measurement": "cell culture performance (growth, viability, ammonium concentration, titer) as replacement for hypotaurine", "setting": "Cell Line B [3]; 3 mM cysteamine/18 mM choline chloride in feed vs 8 mM hypotaurine and 18 mM choline chloride", "result": "not able to serve as replacements for hypotaurine"}]}
{"smiles": "NCCCC(=O)O", "note": "[GABA, Gamma-Aminobutyric Acid]", "values": [{"measurement": "growth (viable cell density)", "setting": "CHO cells; feed medium CF2b supplemented with 8 mM GABA vs unsupplemented control feed", "result": "higher"}, {"measurement": "delay of the onset of a high lactate phenotype compared to control", "setting": "CHO cells; feed medium supplemented with 8 mM GABA", "result": "about 2 days"}, {"measurement": "lactate accumulation", "setting": "CHO cells; [7]", "result": "lower"}, {"measurement": "viability", "setting": "CHO cells; [7]", "result": "higher"}, {"measurement": "culture duration (harvest and culture termination)", "setting": "CHO cells; feed medium supplemented with 8 mM GABA, control process lasted 15 days", "result": 17, "unit": "days"}]}
{"smiles": "NCCS(=O)O", "note": "[Hypotaurine, hypotaurine]", "values": [{"measurement": "day from which the effects were evident", "setting": "Cell Line B [4]; 8 mM hypotaurine feed medium", "result": 10, "unit": "days"}, {"measurement": "ammonium accumulation", "setting": "Cell Line B [4]; [8]", "result": "lower"}, {"measurement": "titer", "setting": "Cell Line B [4]; [8]", "result": "higher"}, {"measurement": "viability", "setting": "Cell Line B [4]; [8]", "result": "higher"}, {"measurement": "growth (cell density)", "setting": "Cell Line B [4]; 8 mM hypotaurine feed medium vs control feed with 0 mM hypotaurine, fed daily Day 1 to Day 15", "result": "higher"}, {"measurement": "Day 10 (Effective) Hypotaurine Conc.", "setting": "Cell Line B [4]; hypotaurine used alone, concentration in culture on Day 10, when effects became evident", "result": 2.5, "unit": "mM"}]}
{"smiles": "N[C@@H](CCC(=O)N[C@@H](CS)C(=O)NCC(=O)O)C(=O)O", "note": "[glutathione]", "values": [{"measurement": "cell culture performance (growth, viability, ammonium concentration, titer) as replacement for hypotaurine", "setting": "Cell Line B [3]; 1.3 mM glutathione/18 mM choline chloride in feed vs 8 mM hypotaurine and 18 mM choline chloride", "result": "not able to serve as replacements for hypotaurine"}]}
{"smiles": "NCCS(=O)(=O)O", "note": "[taurine]", "values": [{"measurement": "cell culture performance (growth, viability, ammonium concentration, titer) as replacement for hypotaurine", "setting": "Cell Line B [3]; 8 mM taurine in feed medium vs 8 mM hypotaurine in feed medium", "result": "not able to serve as a replacement for hypotaurine"}]}
